Test results published in paper PMC8573827, “Zinc protoporphyrin binding to telomerase complexes and inhibition of telomerase activity” (Pharmacology Research & Perspectives, 2021).

Experiments:
Hek293 cells [1] = experiment: DNA synthesis, 3H-thymidine incorporation, Hek293; assay type: cell-based, human; conditions: Hek293, 10 µM MPP, 24–72 h
Procedure: (§1) Semi‐quantitative differences in DNA synthesis were determined by measuring ^3H‐thymidine uptake into whole cells in log phase growth. At indicated time points, cell cultures were washed with serum‐free, thymidine deficient medium, then incubated with fresh medium containing 1 μCi/ml of ^3H‐thymidine for two hours at 37°C. Cultures were washed twice with PBS while attached to dishes, then lysed with 0.5 M NaOH and the relative amount of ^3H‐thymidine quantified by scintillation counting.

Huh7 cells [2] = experiment: DNA synthesis, 3H-thymidine incorporation, Huh7; assay type: cell-based, human; conditions: Huh7, 10 µM MPP, 24–72 h
Procedure: as §1

Taq DNA polymerase = biological target: T1, Taq DNA polymerase (Thermus aquaticus, UniProt P19821); experiment: Taq polymerase inhibition test, MPP added after the telomerase extension step of TRAP; assay type: biochemical; conditions: TRAP, MPP added for the amplification steps only
T1 construct: purchased Perkin‐Elmer Cetus, Norwalk, CT
T1 sequence (P19821 whole entry): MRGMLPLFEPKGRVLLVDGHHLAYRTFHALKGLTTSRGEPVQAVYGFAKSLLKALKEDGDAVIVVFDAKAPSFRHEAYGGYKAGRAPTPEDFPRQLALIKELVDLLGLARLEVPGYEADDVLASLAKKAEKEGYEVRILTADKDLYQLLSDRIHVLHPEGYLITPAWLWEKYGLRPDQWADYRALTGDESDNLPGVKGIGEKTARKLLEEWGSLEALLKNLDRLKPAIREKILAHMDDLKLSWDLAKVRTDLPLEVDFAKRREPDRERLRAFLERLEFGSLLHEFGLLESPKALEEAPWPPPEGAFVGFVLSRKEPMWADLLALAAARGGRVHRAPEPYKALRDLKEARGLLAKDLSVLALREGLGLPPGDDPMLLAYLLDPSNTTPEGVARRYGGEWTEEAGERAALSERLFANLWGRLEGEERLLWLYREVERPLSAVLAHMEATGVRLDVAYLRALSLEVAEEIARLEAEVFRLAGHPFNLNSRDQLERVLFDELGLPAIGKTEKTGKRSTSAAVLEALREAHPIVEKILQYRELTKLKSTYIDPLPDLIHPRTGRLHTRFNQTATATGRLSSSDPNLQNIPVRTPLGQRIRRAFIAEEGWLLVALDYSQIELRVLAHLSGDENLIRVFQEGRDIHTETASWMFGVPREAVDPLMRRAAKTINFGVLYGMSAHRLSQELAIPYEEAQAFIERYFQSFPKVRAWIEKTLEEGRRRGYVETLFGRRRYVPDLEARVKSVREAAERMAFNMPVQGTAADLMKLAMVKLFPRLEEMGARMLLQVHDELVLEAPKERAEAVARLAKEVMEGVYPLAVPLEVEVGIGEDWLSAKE
Procedure: For TRAP assay, a Quantitative Telomerase Detection Kit (US Biomax, Inc) was used to assay cellular lysates or TERT immunoprecipitates (IP) according to the manufacturer's directions. Relative telomerase activity was derived from a standard curve of reference samples and data were analyzed using relative fluorescence units as compared to controls. In some cases, telomerase reaction products were visualized and quantified with TRAPeze system (EMD/Millipore). After separation of the DNA products using 10% non‐denaturing PAGE and SYBR fluorescence labeling [1x SYBR safe DNA gel stain (Invitrogen)], gel bands were imaged with iBright 1500 (Invitrogen). The intensity of the sample's TRAP ladder and internal control was first measured using GelAnalyzer [GelAnalyzer 19.1 (www.gelanalyzer.com )] as recommended. Then, the relative telomerase activity was determined by the ratio of the intensity of the sample's TRAP ladder (telomerase products, TP) to that of the internal control (IC) band.
Because of concerns that some quadruplex ligands inhibit Taq DNA polymerase in addition to telomerase, we assayed MPP inhibition at both steps of the TRAP procedure with a strategy similar to that of others.[36] Using equivalent extracts but separate assays, MPP was either included in the telomerase RT extension step or the extension step was conducted without MPP and then MPP added only for the amplification steps with Taq DNA polymerase. To avoid further potential errors introduced by Real‐time quantification, TRAP products were labeled with SYBR green, visualized on denaturing gels, and each lane was quantified by density measurements as described in the Methods. The latter step also ruled out the possibility that decreases in activity were artifactual due to fluorescence signal quenching by some MPPs.[37] […] All three MPPs had minimal effects on Taq polymerase […] and the slight inhibition of Taq polymerase seen for ZnPP was not directly concentration‐dependent.
Enzymatic extracts were prepared from semi-confluent Huh7 cells and aliquots were assayed in triplicate using TRAP assay. CoPP was added to RT-PCR reactions either before or after the RT telomere elongation step to test whether it inhibited Taq polymerase. Visualization of amplified telomeric products was on 12% denaturing gels using SYBR fluorescence labelling (upper panels). Quantification was with densitometry as described in Methods and plot shown (lower panel). Plotted points represent the mean +/- SD with n =3. (IC)= internal Taq polymerase control.

Huh7 cells [3] = experiment: MTT cell proliferation/viability assay, Huh7; assay type: cell-based, human; conditions: Huh7, 10 µM MPP, 48 h
Procedure: (§2) MPPs were tested for effects on cell proliferation and viability using MTT (3‐(4,5‐dimethylthiazol‐2‐yl)‐2,5‐diphenyltetrazolium bromide) dye conversion assay (Cell Titer 96, Promega) as we described[22] with some modifications. Cells were plated into 96 well plates and allowed to attach overnight. MPPs were added to the cultures and then incubated for the times indicated. At assay time, MTT reagent was added and absorbance measured at 570 nm. Controls included buffer blanks containing MPP because of background absorbances reported for MPPs by us[22] and others.[23] The formula used for determination of viable cells relative to controls was: %viablecells=(abssample‐absblank)/(absconrtrol‐absblank)×100

U2OS cells [4] = experiment: Annexin V apoptosis assay, U2OS; assay type: cell-based, human; conditions: 48 h
Procedure: (§3) For detection of MPP apoptotic effects, cells were treated with MPPs (0, 2.5, 5 and 10 µM) for 48 h and assayed using PE Annexin V Apoptosis Detection Kit (Cat. No. 559763, BD Biosciences) as recommended by the manufacturer.

U2OS cells [5] = experiment: MTT cell proliferation/viability assay, telomerase negative U2OS; assay type: cell-based, human; conditions: 48 h
Procedure: as §2

[6] = tested on: high molecular weight complexes containing telomerase; experiment: Fluorescent labelling of cellular lysate complexes on non-denaturing 0.8% agarose gels; assay type: binding, human; conditions: Huh7 lysates, fluorescence visualization
Procedure: 0.8% Agarose gels were run in Tris‐Borate‐EDTA buffer using standard slab gels as described for high molecular weight complexes.[27] Cell lysates were produced by lysing Hek293 and Huh7 cells in NP40 buffer (25 mM HEPES‐KOH, 150 mM KCl, 1.5mM MgCl2, 10% glycerol, 0.5% NP40, 5 mM 2ME, pH 7.5 supplemented with protease inhibitors) for 30 min on ice. Extracts were clarified by centrifugation for 16 000 g for 10 min. The protein concentration was determined by Bradford assay. The indicated amounts of proteins were treated with different amounts of ZnPP for 2 h on ice, and then separated on 0.8% Agarose gels prepared with 0.5xTris‐Borate‐EDTA (TBE) buffer. The gels were run at 100 V for 2 h at 4 °C in 0.5x TBE buffer. […] No antibody and normal rabbit IgG (sc‐2027, Santa Cruz Biotechnology) were included as controls. The IP products were treated with ZnPP and electrophoresed as above. Free ZnPP and ZnPP bound to large complexes were visualized using a wide‐wavelength UV lightbox or with red fluorescence using excitation (EX) 608–632 nm and emission (EM) 675–720 nm. Thyroglobulin (670 kD), a heavy MW marker, was run in parallel lanes and visualized with Coomassie Blue staining or fluorescence to size the complexes. In some cases, cell lysates or IP were incubated with RNase A (Life Technologies, NY); or DNase 1 (Qiagen, CA) 100 µg/ml for 1 h at 4 °C prior to electrophoresis.

Huh7 cells [7] = experiment: Annexin V apoptosis assay, Huh7; assay type: cell-based, human; conditions: Huh7, 10 µM, 48 h
Procedure: as §3

[8] = tested on: TERT transfected U2OS cells; experiment: MTT viability assay in U2OS cells transfected with human TERT; assay type: cell-based; conditions: U2OS transfected with pCI neo-hEST2, ZnPP 48 h
Procedure: Lipofectamine^T ^M 2000 (ThermoFisher) was used for all transfections and closely followed the manufacturer's protocol. For TERT overexpression the catalytically active TERT plasmid pCI neo‐hEST2, a gift from Dr. Robert Weinberg (Addgene plasmid # 1781)[19] was used. Telomerase RNA component (TERC) plasmid (pBS U3‐hTR‐500) was also obtained from Addgene (plasmid # 28170), a gift from Dr. Kathleen Collins.[20], [21]
as §2

Hek293 cells [9] = experiment: Annexin V apoptosis assay, Hek293; assay type: cell-based, human; conditions: Hek293, 10 µM, 48 h
Procedure: as §3

Hek293 cells [10] = experiment: MTT cell proliferation/viability assay, Hek293; assay type: cell-based, human; conditions: Hek293, 10 µM MPP, 48 h
Procedure: as §2

[11] = tested on: TERT, β-catenin, and cyclin D1 expression; experiment: Western blot of proliferative proteins in Huh7 cells; assay type: cell-based, human; conditions: Huh7, 48 h
Procedure: For SDS ‐PAGE, cellular lysates, and protein preparations such as IP were dissolved in Laemmli buffer, boiled for 1 min and separated on denaturing SDS gels as described.[28] After electrophoretic transfer of separated proteins to nitrocellulose sheets, western blot immunoassays employed enhanced chemiluminescence for signal detection (ECL^TM Prime, Amersham).[28]

C=CC1=C(C)c2cc3[n-]c(cc4nc(cc5[n-]c(cc1n2)c(C)c5C=C)C(C)=C4CCC(=O)O)c(CCC(=O)O)c3C.[Zn+2] [ZnPP, zinc protoporphyrin]
Effect on DNA synthesis (3H-thymidine incorporation) (Hek293 cells [1]): severely attenuated DNA synthesis | Effect on DNA synthesis (3H-thymidine incorporation) (Huh7 cells [2]): severely attenuated DNA synthesis | Effect on Taq polymerase (Taq DNA polymerase): minimal inhibition | Depression of cellular proliferation relative to vehicle only controls (Huh7 cells [3]): greater than 50% | Effect on apoptosis in telomerase negative cells (U2OS cells [4]): failed to have an increased effect on apoptosis | Effect on proliferation in telomerase negative cells (U2OS cells [5]): only minor effects on proliferation | Labelling/binding of cellular complexes on agarose gels [6]: bound to high molecular weight complexes in a concentration dependent manner | Apoptosis (Huh7 cells [7]): ~50% | Sensitivity of viability after TERT transfection [8]: restored ZnPP sensitivity | Apoptosis (Hek293 cells [9]): ~50% | Depression of cellular proliferation relative to vehicle only controls (Hek293 cells [10]): greater than 50% | Effect on expression of TERT, β-catenin and cyclin D1 (western blot) [11]: nearly eliminated
